According to publication PMC11576293, “New series of 4,6-diaryl pyrimidines: facile synthesis and antiproliferative activity as dual EGFR/VEGFR-2 inhibitors” (Frontiers in Chemistry, 2024):

What was measured:
Type in all cases: cell-based
[1] = test system: four cancer cell lines (A-549, MCF-7, Panc-1, HT-29); assay: Antiproliferative assay, average over four cancer cell lines; details: Homo sapiens; average of the four cancer cell lines; read-out: Average IC50 (GI50)
Description: Table 2 presents the four cancer cell lines’ median inhibitory concentration (IC50) and GI50 (average IC50) values.
The IC50 values were derived from dose-response tests. The reported data are derived from at least two independent studies, each comprising three replicates per concentration. See Supplementary Material A1 for more details.

SR = assay: NCI-60 single-dose screen; details: Homo sapiens, single dose 10 µM, '-' = no inhibition, read-out: % Growth Inhibition
Procedure: (§1) The National Cancer Institute’s Developmental Therapeutic Program (www.dtp.nci.nih.gov) has tested compounds 9–29 (except compounds 21 and 22) against 60 cancer cell lines from nine types (leukemia, lung, colon, CNS, melanoma, ovarian, renal, prostate, and breast cancer) at a single dose (10 μM) ([El-Sherief et al., 2018]). […] The most sensitive cells included leukemia (SR, K-562, and MOLT-4), lung (NCI-H522, […], and EKVX), breast (MCF-7 and T-47D), colon (HCT-15 and HT-29), and ovarian (NCI/ADR-RES).
(§2) The National Cancer Institute’s Developmental Therapeutic Program (www.dtp.nci.nih.gov) evaluated compounds 9–29 (excluding 21 and 22) against 60 cancer cell lines from nine categories (leukemia, lung, colon, CNS, melanoma, ovarian, renal, prostate, and breast cancer) at a single dose (10 μM) ([El-Sherief et al., 2018]). See Supplementary Material A1 for more details.

HCC-2998 = assay: NCI-60 single-dose screen; details: Homo sapiens, single dose 10 µM, '-' = no inhibition, read-out: % Growth Inhibition
Procedure: as §1, §2

TK-10 = assay: NCI-60 single-dose screen; details: Homo sapiens, single dose 10 µM, '-' = no inhibition, read-out: % Growth Inhibition
Procedure: as §1, §2

SK-OV-3 = assay: NCI-60 single-dose screen; details: Homo sapiens, single dose 10 µM, '-' = no inhibition, read-out: % Growth Inhibition
Procedure: as §1, §2

NCI/ADR-RES = assay: NCI-60 single-dose screen; details: Homo sapiens, single dose 10 µM, '-' = no inhibition, read-out: % Growth Inhibition
Procedure: as §1, §2

UACC-257 = assay: NCI-60 single-dose screen; details: Homo sapiens, single dose 10 µM, '-' = no inhibition, read-out: % Growth Inhibition
Procedure: as §1, §2

UO-31 = assay: NCI-60 single-dose screen; details: Homo sapiens, single dose 10 µM, '-' = no inhibition, read-out: % Growth Inhibition
Procedure: as §1, §2

SN12C = assay: NCI-60 single-dose screen; details: Homo sapiens, single dose 10 µM, '-' = no inhibition, read-out: % Growth Inhibition
Procedure: as §1, §2

CAKI-1 = assay: NCI-60 single-dose screen; details: Homo sapiens, single dose 10 µM, '-' = no inhibition, read-out: % Growth Inhibition
Procedure: as §1, §2

MDA-MB231/ATCC = assay: NCI-60 single-dose screen; details: Homo sapiens, MDA-MB-231, single dose 10 µM, '-' = no inhibition, read-out: % Growth Inhibition
Procedure: as §1, §2

K-562 = assay: NCI-60 single-dose screen; details: Homo sapiens, K562, single dose 10 µM, '-' = no inhibition, read-out: % Growth Inhibition
Procedure: as §1, §2

MDA-MB-468 = assay: NCI-60 single-dose screen; details: Homo sapiens, single dose 10 µM, '-' = no inhibition, read-out: % Growth Inhibition
Procedure: as §1, §2

786-0 = assay: NCI-60 single-dose screen; details: Homo sapiens, single dose 10 µM, '-' = no inhibition, read-out: % Growth Inhibition
Procedure: as §1, §2

HT29 = assay: NCI-60 single-dose screen; details: Homo sapiens, HT-29, single dose 10 µM, '-' = no inhibition, read-out: % Growth Inhibition
Procedure: as §1, §2

IGROV1 = assay: NCI-60 single-dose screen; details: Homo sapiens, IGROV-1, single dose 10 µM, '-' = no inhibition, read-out: % Growth Inhibition
Procedure: as §1, §2

OVCAR-5 = assay: NCI-60 single-dose screen; details: Homo sapiens, single dose 10 µM, '-' = no inhibition, read-out: % Growth Inhibition
Procedure: as §1, §2

RPMI-8226 = assay: NCI-60 single-dose screen; details: Homo sapiens, single dose 10 µM, '-' = no inhibition, read-out: % Growth Inhibition
Procedure: as §1, §2

SK-MEL-5 = assay: NCI-60 single-dose screen; details: Homo sapiens, single dose 10 µM, '-' = no inhibition, read-out: % Growth Inhibition
Procedure: as §1, §2

OVCAR-8 = assay: NCI-60 single-dose screen; details: Homo sapiens, single dose 10 µM, '-' = no inhibition, read-out: % Growth Inhibition
Procedure: as §1, §2

RXF 393 = assay: NCI-60 single-dose screen; details: Homo sapiens, single dose 10 µM, '-' = no inhibition, read-out: % Growth Inhibition
Procedure: as §1, §2

BT-549 = assay: NCI-60 single-dose screen; details: Homo sapiens, single dose 10 µM, '-' = no inhibition, read-out: % Growth Inhibition
Procedure: as §1, §2

NCI-H522 = assay: NCI-60 single-dose screen; details: Homo sapiens, single dose 10 µM, '-' = no inhibition, read-out: % Growth Inhibition
Procedure: as §1, §2

SNB-19 = assay: NCI-60 single-dose screen; details: Homo sapiens, single dose 10 µM, '-' = no inhibition, read-out: % Growth Inhibition
Procedure: as §1, §2

HOP-92 = assay: NCI-60 single-dose screen; details: Homo sapiens, single dose 10 µM, '-' = no inhibition, read-out: % Growth Inhibition
Procedure: as §1, §2

SF-268 = assay: NCI-60 single-dose screen; details: Homo sapiens, single dose 10 µM, '-' = no inhibition, read-out: % Growth Inhibition
Procedure: as §1, §2

COLO 205 = assay: NCI-60 single-dose screen; details: Homo sapiens, single dose 10 µM, '-' = no inhibition, read-out: % Growth Inhibition
Procedure: as §1, §2

HS 578T = assay: NCI-60 single-dose screen; details: Homo sapiens, single dose 10 µM, '-' = no inhibition, read-out: % Growth Inhibition
Procedure: as §1, §2

HCT-116 = assay: NCI-60 single-dose screen; details: Homo sapiens, single dose 10 µM, '-' = no inhibition, read-out: % Growth Inhibition
Procedure: as §1, §2

UACC-62 = assay: NCI-60 single-dose screen; details: Homo sapiens, single dose 10 µM, '-' = no inhibition, read-out: % Growth Inhibition
Procedure: as §1, §2

OVCAR-4 = assay: NCI-60 single-dose screen; details: Homo sapiens, single dose 10 µM, '-' = no inhibition, read-out: % Growth Inhibition
Procedure: as §1, §2

DU-145 = assay: NCI-60 single-dose screen; details: Homo sapiens, single dose 10 µM, '-' = no inhibition, read-out: % Growth Inhibition
Procedure: as §1, §2

SF-539 = assay: NCI-60 single-dose screen; details: Homo sapiens, single dose 10 µM, '-' = no inhibition, read-out: % Growth Inhibition
Procedure: as §1, §2

NCI-H460 = assay: NCI-60 single-dose screen; details: Homo sapiens, single dose 10 µM, '-' = no inhibition, read-out: % Growth Inhibition
Procedure: as §1, §2

U251 = assay: NCI-60 single-dose screen; details: Homo sapiens, U-251, single dose 10 µM, '-' = no inhibition, read-out: % Growth Inhibition
Procedure: as §1, §2

SK-MEL-28 = assay: NCI-60 single-dose screen; details: Homo sapiens, single dose 10 µM, '-' = no inhibition, read-out: % Growth Inhibition
Procedure: as §1, §2

ACHN 1 = assay: NCI-60 single-dose screen; details: Homo sapiens, single dose 10 µM, '-' = no inhibition, read-out: % Growth Inhibition
Procedure: as §1, §2

SK-MEL-2 = assay: NCI-60 single-dose screen; details: Homo sapiens, single dose 10 µM, '-' = no inhibition, read-out: % Growth Inhibition
Procedure: as §1, §2

OVCAR-3 = assay: NCI-60 single-dose screen; details: Homo sapiens, single dose 10 µM, '-' = no inhibition, read-out: % Growth Inhibition
Procedure: as §1, §2

A549/ATCC = assay: NCI-60 single-dose screen; details: Homo sapiens, single dose 10 µM, '-' = no inhibition, read-out: % Growth Inhibition
Procedure: as §1, §2

NCI-H23 = assay: NCI-60 single-dose screen; details: Homo sapiens, single dose 10 µM, '-' = no inhibition, read-out: % Growth Inhibition
Procedure: as §1, §2

HL-60(TB) = assay: NCI-60 single-dose screen; details: Homo sapiens, single dose 10 µM, '-' = no inhibition, read-out: % Growth Inhibition
Procedure: as §1, §2

PC-3 = assay: NCI-60 single-dose screen; details: Homo sapiens, single dose 10 µM, '-' = no inhibition, read-out: % Growth Inhibition
Procedure: as §1, §2

NCI-H322M = assay: NCI-60 single-dose screen; details: Homo sapiens, single dose 10 µM, '-' = no inhibition, read-out: % Growth Inhibition
Procedure: as §1, §2

Compound: COc1ccc(-c2cc(-c3ccc(Cl)cc3)nc(SCc3ccccc3)n2)cc1 [Compound 14, 2-(Benzylthio)-4-(4-chlorophenyl)-6-(4-methoxyphenyl)pyrimidine]
- IC50 [1]: 29 nM
- inhibition at 10 µM (SR): 10.2%
- inhibition at 10 µM (HCC-2998): < 0%
- inhibition at 10 µM (TK-10): < 0%
- inhibition at 10 µM (SK-OV-3): < 0%
- inhibition at 10 µM (NCI/ADR-RES): < 0%
- inhibition at 10 µM (UACC-257): < 0%
- inhibition at 10 µM (UO-31): < 0%
- inhibition at 10 µM (SN12C): 10.4%
- inhibition at 10 µM (CAKI-1): 2.18%
- inhibition at 10 µM (MDA-MB231/ATCC): < 0%
- inhibition at 10 µM (K-562): 11.7%
- inhibition at 10 µM (MDA-MB-468): < 0%
- inhibition at 10 µM (786-0): < 0%
- inhibition at 10 µM (HT29): 8.96%
- inhibition at 10 µM (IGROV1): < 0%
- inhibition at 10 µM (OVCAR-5): 2.5%
- inhibition at 10 µM (RPMI-8226): < 0%
- inhibition at 10 µM (SK-MEL-5): 2.06%
- inhibition at 10 µM (OVCAR-8): < 0%
- inhibition at 10 µM (RXF 393): < 0%
- inhibition at 10 µM (BT-549): < 0%
- inhibition at 10 µM (NCI-H522): < 0%
- inhibition at 10 µM (SNB-19): < 0%
- inhibition at 10 µM (HOP-92): < 0%
- inhibition at 10 µM (SF-268): < 0%
- inhibition at 10 µM (COLO 205): 10.3%
- inhibition at 10 µM (HS 578T): < 0%
- inhibition at 10 µM (HCT-116): < 0%
- inhibition at 10 µM (UACC-62): < 0%
- inhibition at 10 µM (OVCAR-4): < 0%
- inhibition at 10 µM (DU-145): 1.74%
- inhibition at 10 µM (SF-539): < 0%
- inhibition at 10 µM (NCI-H460): < 0%
- inhibition at 10 µM (U251): < 0%
- inhibition at 10 µM (SK-MEL-28): < 0%
- inhibition at 10 µM (ACHN 1): 11%
- inhibition at 10 µM (SK-MEL-2): 7.79%
- inhibition at 10 µM (OVCAR-3): 6.22%
- inhibition at 10 µM (A549/ATCC): 2.08%
- inhibition at 10 µM (NCI-H23): < 0%
- inhibition at 10 µM (HL-60(TB)): 18.1%
- inhibition at 10 µM (PC-3): 20.7%
- inhibition at 10 µM (NCI-H322M): < 0%
